As a reminder, the melting point is the temperature, or range, at which the solid turns liquid.

This is an account of results in US8802678B2, “Carbonylated (aza) cyclohexanes as dopamine D3 receptor ligands” (Bioprojet, priority 2006, dated 2014).

Consider `N#CCC(=O)N[C@H]1CC[C@H](CCN2CCN(c3cc(F)c(C(F)(F)F)c(F)c3)CC2)CC1` [Example 574, 2-Cyano-N-(4-{2-[4-(3,5-difluoro-4-trifluoromethylphenyl)piperazin-1-yl]ethyl}cyclohexyl) acetamide], for which the melting point worked out at 231 °C.
As for `CC(=O)CN1CCC(CCN2CCN(c3cc(Cl)c(Cl)cc3F)CC2)CC1.Cl.Cl`, the figure is 309 °C (dec.); as for `CC(=O)CN1CCC(CCN2CCN(c3ccc(F)cc3C)CC2)CC1.Cl.Cl`, 283 °C; as for `Cc1cc(C)cc(C2=CCN(CC[C@H]3CC[C@H](NC(=O)CC#N)CC3)CC2)c1`, 182 °C.
Compound `CC(=O)CN1CCC(CCN2CCN(c3cccc(OC(C)C)c3)CC2)CC1.Cl.Cl` registered a melting point of 237 °C.
`CCOCC(=O)N[C@H]1CC[C@H](CCN2CCN(c3cc(C#N)cc(C(F)(F)F)c3)CC2)CC1` [Example 140, N-(4-{2-[4-(3-Cyano-5-trifluoromethylphenyl)piperazin-1-yl]ethyl}cyclohexyl)-2-ethoxyacetamide] registered a melting point of 133 °C.
As to `CC(=O)CN1CCC(CCN2CCN(c3ccccc3Cl)CC2)CC1.Cl.Cl`, the melting point was 265 °C.
As for `O=C(N[C@H]1CC[C@H](CCN2CCN(c3cccc(-c4ncco4)c3)CC2)CC1)C1=COCC1` [Example 532, 4,5-Dihydrofuran-3-carboxylic acid(4-{2-[4-(3-oxazol-2-ylphenyl)piperazin-1-yl]ethyl}cyclohexyl) amide], the figure is 202 °C.
As for `N#C[C@@H]1CC1C(=O)N[C@H]1CC[C@H](CCN2CCN(c3cccc(C(F)(F)F)c3)CC2)CC1` (stereo in doubt) [Example 324, 2-Cyano-cyclopropanecarboxylic acid (4-{2-[4-(3-trifluoromethylphenyl)piperazin-1-yl]ethyl}cyclohexyl) amide], the figure is 159 °C.
As for `N#Cc1cccc(N2CCN(CC[C@H]3CC[C@H](NC(=O)CC(F)(F)F)CC3)CC2)c1` [Example 511, N-(4-{2-[4-(3-Cyanophenyl)piperazin-1-yl]ethyl}cyclohexyl)-3,3,3-trifluoropropanamide], the figure is 180 °C; as for `CC(=O)CN1CCC(CCN2CC=C(c3cccc(Cl)c3Cl)CC2)CC1.Cl.Cl`, 296 to 297 °C.
Take `O=C(N[C@H]1CC[C@H](CCN2CCN(c3cccc(F)c3)CC2)CC1)C1=CCCCC1` [Example 394]: the melting point came to 195 °C.
The compound `Cc1c(N2CCN(CC[C@H]3CC[C@H](NC(=O)CC#N)CC3)CC2)cccc1C(F)(F)F` [Example 178, 2-Cyano-N-(4-{2-[4-(2-methyl-3-trifluoromethylphenyl)piperazin-1-yl]ethyl}cyclohexyl)acetamide] came in with a melting point of 181 °C.
`CC(=O)CCCC(=O)N[C@H]1CC[C@H](CCN2CCN(c3cccc(C(F)(F)F)c3)CC2)CC1` [Example 202, 5-Oxo-hexanoic acid (4-{2-[4-(3-trifluoromethylphenyl)piperazin-1-yl]ethyl}cyclohexyl)amide] gave a melting point of 158 °C.
With `COc1cccc(N2CCN(CC[C@H]3CC[C@H](NC(=O)CCCC#N)CC3)CC2)c1` [Example 416, 4-Cyano-N-(4-{2-[4-(3-methoxyphenyl)piperazin-1-yl]ethyl}cyclohexyl)butanamide], the melting point was determined as 145 °C.
As for `CC(=O)CN1CCC(CCN2CCN(c3cccc4cccnc34)CC2)CC1.Cl.Cl`, the figure is 270 °C; as for `O=C(N[C@H]1CC[C@H](CCN2CCN(c3cccc(C(F)(F)F)c3)CC2)CC1)C(F)(F)F` [Example 38, 2,2,2-Trifluoro-N-(4-{2-[4-(3-trifluoromethylphenyl)piperazin-1-yl]ethyl}cyclohexyl)acetamide], 134 °C.
On to `Cc1c(F)cccc1N1CCN(CC[C@H]2CC[C@H](NC(=O)CC#N)CC2)CC1` [Example 313, 2-Cyano-N-(4-{2-[4-(3-fluoro-2-methylphenyl)piperazin-1-yl]ethyl}cyclohexyl)acetamide], for which the melting point stood at 174 °C.
Regarding `N#Cc1cccc(N2CCN(CC[C@H]3CC[C@H](NC(=O)CCC(F)(F)F)CC3)CC2)c1` [Example 653, N-(4-{2-[4-(3-Cyanophenyl)piperazin-1-yl]ethyl}cyclohexyl)-4,4,4-trifluorobutanamide], the melting point was 176 °C.
As for `COCCCC(=O)N[C@H]1CC[C@H](CCN2CCN(c3cc(C)cc(C)c3)CC2)CC1` [Example 715, N-(4-{2-[4-(3,5-Dimethylphenyl)-piperazin-1-yl]ethyl}cyclohexyl)-4-methoxybutanamide], the figure is 195 °C; as for `CC(C)(C)OC(=O)CN1CCC(CCN2CCN(c3cccc(C(F)(F)F)c3)CC2)CC1.Cl.Cl`, 245 °C; as for `Cl.N#CCC(=O)N[C@H]1CC[C@H](CCN2CCN(c3ccccc3C(F)(F)F)CC2)CC1`, 278 °C.
As for `CC(=O)CN1CCC(CCN2CCN(c3cc(C)c(F)cc3Cl)CC2)CC1.Cl.Cl`, the figure is 344 °C; as for `COc1ccc(C)cc1N1CCN(CC[C@H]2CC[C@H](NC(=O)CCCC#N)CC2)CC1` [Example 483, 4-Cyano-N-(4-{2-[4-(2-methoxy-5-methylphenyl)piperazin-1-yl]ethyl}cyclohexyl)butanamide], 164 °C; as for `COCCCC(=O)N[C@H]1CC[C@H](CCN2CCN(c3ccccc3)CC2)CC1` [Example 99, 4-Methoxy-N-{4-[2-(4-phenylpiperazin-1-yl)ethyl]cyclohexyl}butanamide], 172 °C.
As for `N#CCCCC(=O)N[C@H]1CC[C@H](CCN2CCN(c3ccc(F)c(F)c3)CC2)CC1` [Example 357, 4-Cyano-N-(4-{2-[4-(3,4-difluorophenyl)piperazin-1-yl]ethyl}cyclohexyl)butanamide], the figure is 141 °C; as for `Cc1ccc(F)cc1N1CCN(CC[C@H]2CC[C@H](NC(=O)CCC#N)CC2)CC1` [Example 278, 3-Cyano-N-(4-{2-[4-(5-fluoro-2-methylphenyl)piperazin-1-yl]ethyl}cyclohexyl)propanamide], 146 °C; as for `COCC(=O)N[C@H]1CC[C@H](CCN2CCN(c3cccc(C(F)(F)F)c3F)CC2)CC1` [Example 260, N-(4-{2-[4-(2-Fluoro-3-trifluoromethylphenyl)piperazin-1-yl]ethyl}cyclohexyl)-2-methoxyacetamide], 142 °C.
In turn, `CC(=O)CN1CCC(CCN2CCN(c3cc(C)cc(F)c3)CC2)CC1.Cl.Cl` gave a melting point of 273 °C.
Regarding `CC(=O)CN1CCC(CCN2CC=C(c3ccccc3)CC2)CC1`, the melting point stood at 80 °C.
As for `COc1ccc(N2CCN(CC[C@H]3CC[C@H](NC(=O)CC#N)CC3)CC2)cc1` [Example 573, 2-Cyano-N-(4-{2-[4-(4-methoxyphenyl)piperazin-1-yl]ethyl}cyclohexyl)acetamide], the figure is 227 °C.
As for `CC(=O)NCC(=O)N[C@H]1CC[C@H](CCN2CCN(c3ccccc3)CC2)CC1` [Example 128, 2-Acetylamino-N-{4-[2-(4-phenylpiperazin-1-yl)ethyl]cyclohexyl}acetamide], the figure is 227 °C.
